Results as given in US10428017B2, “Modulators of the cystic fibrosis transmembrane conductance regulator protein and methods of use” (AbbVie S.à.r.l., priority 2017, dated 2019).
Like-named read-outs stand apart in the source and are kept apart here.

Target: T1, F508delCFTR (Homo sapiens, UniProt P13569, DEL508-508)
T1 construct: expressed in transfected cells; host or cells: CFBE4lo-F508delCFTR-HRP cells (human lung derived epithelial cell line, doxycycline-inducible)
Assay: Cell Surface Expression-Horse Radish Peroxidase (CSE-HRP) Assay
Format: cell-based
Settings: for EC50: CFBE4lo-F508delCFTR-HRP cells, 18-24 hours at 33° C.; for Emax / Maximum % activity (with co-corrector): maximum at any tested concentration (up to 20 μM), normalized to on-plate positive control (2 μM co-corrector); for Maximum % activity (with co-corrector): with co-corrector 2 μM
Procedure, shortened: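 CFBE4lo− cells expressing F508delCFTR with HRP in the fourth exofacial loop, induced 72 h with 0.5 μg/mL doxycycline, then treated 18-24 h at 33° C, alone or with 2 μM co-corrector (8 points, 3-fold, top 20 μM). Luminol luminescence after washing; % activity normalized to DMSO and 2 μM positive control; sigmoidal EC50 from triplicate plates.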

[1] = test compound without co-corrector, HRP luminescence readout, read-out: EC50 (without co-corrector)
[2] = test compound without co-corrector
[3] = with co-corrector 2 μM 3-[(2R,4R)-4-({[1-(2,2-difluoro-1,3-benzodioxol-5-yl)cyclopropyl]carbonyl}amino)-7-methoxy-3,4-dihydro-2H-chromen-2-yl]benzoic acid, read-out: EC50 (with co-corrector)

T1 sequence (P13569 with tags, fused parts or gaps DEL508-508): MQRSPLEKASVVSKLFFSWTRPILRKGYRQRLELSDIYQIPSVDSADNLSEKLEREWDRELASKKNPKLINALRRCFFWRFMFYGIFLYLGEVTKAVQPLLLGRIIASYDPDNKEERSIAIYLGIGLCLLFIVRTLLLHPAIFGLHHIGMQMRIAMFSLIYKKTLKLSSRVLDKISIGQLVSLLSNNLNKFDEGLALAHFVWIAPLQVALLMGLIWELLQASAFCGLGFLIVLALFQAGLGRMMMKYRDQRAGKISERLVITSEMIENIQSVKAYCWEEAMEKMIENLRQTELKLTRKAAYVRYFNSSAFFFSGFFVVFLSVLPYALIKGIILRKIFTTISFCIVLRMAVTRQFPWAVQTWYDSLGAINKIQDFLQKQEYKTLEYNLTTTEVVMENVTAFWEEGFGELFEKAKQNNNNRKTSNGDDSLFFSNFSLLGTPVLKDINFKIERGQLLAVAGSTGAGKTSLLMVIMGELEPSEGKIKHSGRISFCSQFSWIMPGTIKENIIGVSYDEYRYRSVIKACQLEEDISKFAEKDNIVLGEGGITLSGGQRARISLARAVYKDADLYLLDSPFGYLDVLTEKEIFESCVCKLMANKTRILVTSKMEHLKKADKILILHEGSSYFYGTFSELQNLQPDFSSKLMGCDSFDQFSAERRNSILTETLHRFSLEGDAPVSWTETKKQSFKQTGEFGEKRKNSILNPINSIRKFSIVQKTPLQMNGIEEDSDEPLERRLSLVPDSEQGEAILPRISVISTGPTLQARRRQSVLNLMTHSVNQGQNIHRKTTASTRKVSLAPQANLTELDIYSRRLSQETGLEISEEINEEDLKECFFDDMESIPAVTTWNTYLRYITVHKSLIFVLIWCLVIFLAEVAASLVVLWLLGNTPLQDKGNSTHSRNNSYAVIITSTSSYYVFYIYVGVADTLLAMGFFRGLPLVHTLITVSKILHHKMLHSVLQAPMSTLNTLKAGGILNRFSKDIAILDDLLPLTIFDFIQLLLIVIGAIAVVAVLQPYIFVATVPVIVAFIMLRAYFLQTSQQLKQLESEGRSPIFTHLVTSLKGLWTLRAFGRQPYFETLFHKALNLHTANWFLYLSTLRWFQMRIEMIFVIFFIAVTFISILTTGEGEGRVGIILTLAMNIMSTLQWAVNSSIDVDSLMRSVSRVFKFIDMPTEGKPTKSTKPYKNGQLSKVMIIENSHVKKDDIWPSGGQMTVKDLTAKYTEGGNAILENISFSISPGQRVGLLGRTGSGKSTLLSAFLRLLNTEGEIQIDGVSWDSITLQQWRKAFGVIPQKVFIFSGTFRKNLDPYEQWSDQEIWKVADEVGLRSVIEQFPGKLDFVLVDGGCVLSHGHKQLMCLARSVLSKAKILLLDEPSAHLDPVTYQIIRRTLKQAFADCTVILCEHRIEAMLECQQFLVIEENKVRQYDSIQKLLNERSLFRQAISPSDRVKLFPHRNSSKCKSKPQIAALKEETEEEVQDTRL

EC50 [1]	Emax [2]	EC50 [3]	Maximum % activity (with co-corrector)	SMILES
3 to 10 µM	≥ 150%	< 3 µM	+++ (≥350)	COc1ccc(C2CCC2)c2c1C(C(=O)NS(=O)(=O)c1cccc3ncccc13)OCC2 (stereo not shown) [Example 81, 5-cyclobutyl-8-methoxy-N-(quinoline-5-sulfonyl)-3,4-dihydro-1H-2-benzopyran-1-carboxamide]
< 3 µM	≥ 150%	< 3 µM	+++ (≥350)	COc1ccc(C2CCC2)c2c1C(C(=O)NS(=O)(=O)c1cccc3c1CCCN3)CCO2 (stereo not shown) [Example 85, 8-cyclobutyl-5-methoxy-N-(1,2,3,4-tetrahydroquinoline-5-sulfonyl)-3,4-dihydro-2H-1-benzopyran-4-carboxamide]
< 3 µM	≥ 150%	< 3 µM	+++ (≥350)	COc1ccc(C2CCC2)c2c1[C@H](C(=O)NS(=O)(=O)c1cccc3ncccc13)CC(C)(C)O2 [Example 86, (4R)-8-cyclobutyl-5-methoxy-2,2-dimethyl-N-(quinoline-5-sulfonyl)-3,4-dihydro-2H-1-benzopyran-4-carboxamide]
< 3 µM	≥ 150%	< 3 µM	+++ (≥350)	COc1ccc(C2CCC2)c2c1C(C(=O)NS(=O)(=O)c1cccc3ncn(C)c13)CO2 (stereo not shown) [Example 87, 7-cyclobutyl-4-methoxy-N-(1-methyl-1H-benzimidazole-7-sulfonyl)-2,3-dihydro-1-benzofuran-3-carboxamide]
3 to 10 µM	≥ 150%	< 3 µM	+++ (≥350)	COc1ccc(C2CCC2)c2c1C(C(=O)NS(=O)(=O)c1cccn3nccc13)CO2 (stereo not shown) [Example 88, 7-cyclobutyl-4-methoxy-N-(pyrazolo[1,5-a]pyridine-4-sulfonyl)-2,3-dihydro-1-benzofuran-3-carboxamide]
3 to 10 µM	≥ 150%	< 3 µM	+++ (≥350)	COc1ccc(C2CCC2)c2c1C(C(=O)NS(=O)(=O)c1cccc3c1NCCC3)CO2 (stereo not shown) [Example 90, 7-cyclobutyl-4-methoxy-N-(1,2,3,4-tetrahydroquinoline-8-sulfonyl)-2,3-dihydro-1-benzofuran-3-carboxamide]
3 to 10 µM	≥ 150%	3 to 10 µM	+++ (≥350)	COc1ccc(C2CCC2)c2c1[C@@H](C(=O)NS(=O)(=O)c1cccc3c1CCCN3)CCO2 [Example 91, (4S)-8-cyclobutyl-5-methoxy-N-(1,2,3,4-tetrahydroquinoline-5-sulfonyl)-3,4-dihydro-2H-1-benzopyran-4-carboxamide]
< 3 µM	≥ 150%	< 3 µM	+++ (≥350)	COc1ccc(C2CCC2)c2c1[C@H](C(=O)NS(=O)(=O)c1cccc3c1CCCN3)CCO2 [Example 92, (4R)-8-cyclobutyl-5-methoxy-N-(1,2,3,4-tetrahydroquinoline-5-sulfonyl)-3,4-dihydro-2H-1-benzopyran-4-carboxamide]
< 3 µM	≥ 150%	< 3 µM	+++ (≥350)	COc1ccc(C2CCC2)c2c1C(C(=O)NS(=O)(=O)c1cccc3c1CCCN3)CC(C)(C)O2 (stereo not shown) [Example 93, 8-cyclobutyl-5-methoxy-2,2-dimethyl-N-(1,2,3,4-tetrahydroquinoline-5-sulfonyl)-3,4-dihydro-2H-1-benzopyran-4-carboxamide]
< 3 µM	≥ 150%	< 3 µM	+++ (≥350)	COc1ccc(C2CCC2)c2c1[C@H](C(=O)NS(=O)(=O)c1cccc3cnn(C)c13)CO2 [Example 95, (3S)-7-cyclobutyl-4-methoxy-N-(1-methyl-1H-indazole-7-sulfonyl)-2,3-dihydro-1-benzofuran-3-carboxamide]
< 3 µM	≥ 150%	< 3 µM	+++ (≥350)	COc1ccc(C2CCC2)c2c1[C@@H](C(=O)NS(=O)(=O)c1cccc3c1CCCN3)CC(C)(C)O2 [Example 96, (4S)-8-cyclobutyl-5-methoxy-2,2-dimethyl-N-(1,2,3,4-tetrahydroquinoline-5-sulfonyl)-3,4-dihydro-2H-1-benzopyran-4-carboxamide]
< 3 µM	≥ 150%	< 3 µM	+++ (≥350)	COc1ccc(C2CCC2)c2c1[C@H](C(=O)NS(=O)(=O)c1cccc3c1NCCC3)CO2 [Example 99, (3S)-7-cyclobutyl-4-methoxy-N-(1,2,3,4-tetrahydroquinoline-8-sulfonyl)-2,3-dihydro-1-benzofuran-3-carboxamide]
3 to 10 µM	50 to 150%	3 to 10 µM	+++ (≥350)	COc1ccc(C2CCC2)c2c1[C@@H](C(=O)NS(=O)(=O)c1cccc3c1CCCN3)CO2 [Example 100, (3R)-7-cyclobutyl-4-methoxy-N-(1,2,3,4-tetrahydroquinoline-5-sulfonyl)-2,3-dihydro-1-benzofuran-3-carboxamide]
< 3 µM	≥ 150%	< 3 µM	+++ (≥350)	COc1ccc(C2CCC2)c2c1[C@H](C(=O)NS(=O)(=O)c1cccc3c1CCCN3)CO2 [Example 101, (3S)-7-cyclobutyl-4-methoxy-N-(1,2,3,4-tetrahydroquinoline-5-sulfonyl)-2,3-dihydro-1-benzofuran-3-carboxamide]
< 3 µM	≥ 150%	< 3 µM	+++ (≥350)	COc1ccc(C2CCC2)c2c1C(C(=O)NS(=O)(=O)c1cccc3[nH]ccc13)CCO2 (stereo not shown) [Example 102, 8-cyclobutyl-N-(1H-indole-4-sulfonyl)-5-methoxy-3,4-dihydro-2H-1-benzopyran-4-carboxamide]
3 to 10 µM	≥ 150%	< 3 µM	+++ (≥350)	COc1ccc(C2CCC2)c2c1[C@@H](C(=O)NS(=O)(=O)c1cccc3[nH]ccc13)CCO2 [Example 103, (4S)-8-cyclobutyl-N-(1H-indole-4-sulfonyl)-5-methoxy-3,4-dihydro-2H-1-benzopyran-4-carboxamide]
< 3 µM	≥ 150%	< 3 µM	+++ (≥350)	COc1ccc(C2CCC2)c2c1[C@H](C(=O)NS(=O)(=O)c1cccc3[nH]ccc13)CCO2 [Example 104, (4R)-8-cyclobutyl-N-(1H-indole-4-sulfonyl)-5-methoxy-3,4-dihydro-2H-1-benzopyran-4-carboxamide]
3 to 10 µM	≥ 150%	< 3 µM	+++ (≥350)	COc1ccc(C2CCC2)c2c1OCCC2C(=O)NS(=O)(=O)c1cccc2ncccc12 (stereo not shown) [Example 105, 5-cyclobutyl-8-methoxy-N-(quinoline-5-sulfonyl)-3,4-dihydro-2H-1-benzopyran-4-carboxamide]
3 to 10 µM	50 to 150%	< 3 µM	+++ (≥350)	COc1ccc(Br)c2c1CCOC2C(=O)NS(=O)(=O)c1cccc2ccccc12 (stereo not shown) [Example 108, 8-bromo-5-methoxy-N-(naphthalene-1-sulfonyl)-3,4-dihydro-1H-2-benzopyran-1-carboxamide]
–	–	3 to 10 µM	++ (≥150 and <350)	O=C(NS(=O)(=O)c1cccc2ccccc12)C1OCCc2ccc(OC(F)(F)F)cc21 (stereo not shown) [Example 109, N-(naphthalene-1-sulfonyl)-7-(trifluoromethoxy)-3,4-dihydro-1H-2-benzopyran-1-carboxamide]
≥ 10 µM	< 50%	3 to 10 µM	++ (≥150 and <350)	COc1cccc2c1CCOC2C(=O)NS(=O)(=O)c1cccc2ccccc12 (stereo not shown) [Example 110, 5-methoxy-N-(naphthalene-1-sulfonyl)-3,4-dihydro-1H-2-benzopyran-1-carboxamide]
